Like-named read-outs stand apart in the source and are kept apart here.
Experiments:
A549 [1] = experiment: Cell cycle analysis by flow cytometry; assay type: cell-based, human; conditions: IC50 concentration, 96 h
Description: (§1) CycleTEST™ PLUS DNA Reagent Kit (Becton Dickinson GmbH, Heidelberg, Germany) for cell cycle analysis was used, according to the instructions of the manufacturer. Briefly, the cells were harvested with trypsin, washed with PBS, and resuspended in CycleTEST Buffer. The cells were centrifuged and resuspended in solution A. After incubation for 10 min at room temperature, solution B was added and incubated. After adding solution C, the samples were incubated at 4°C protected from light. The samples were stored on ice and protected from light until analysis by FACScan flow cytometer (Becton Dickinson GmbH, Heidelberg, Germany).

HepG2 [2] = experiment: Cell cycle analysis by flow cytometry; assay type: cell-based, human; conditions: IC50 concentration, 96 h
Description: as §1

CaCo2 [3] = experiment: Cell cycle analysis by flow cytometry; assay type: cell-based, human; conditions: IC50 concentration, 96 h
Description: as §1

A2C12 [4] = experiment: MTS cell viability assay; assay type: cell-based, mouse
Description: (§2) Three human and eleven murine cancer cell lines were used. The human NSCLC cell line A549 (ACC 107) and the human colorectal carcinoma cell line CaCo2 (ACC 169) were obtained from Deutsche Sammlung von Mikroorganismen und Zellkulturen (DSMZ, Braunschweig, Germany). The human hepatocellular carcinoma cell line HepG2 (HB-8065) was obtained from American Type Culture Collection (Manassas, VA, USA). The 11 murine NSCLC cell lines were established as described recently. Cells were grown in monolayer cultures in DMEM containing 10% foetal calf serum, 4 mmol/l L-glutamine and 2% Penicillin/Streptomycin at 37°C in a humidified atmosphere of 95% air and 5% CO2.
(§3) Cell culture viability was monitored by CellTiter96® AQueous One Solution Cell Proliferation Assay (Promega GmbH, Mannheim, Germany). The cells were seeded in triplicates in 96-well microtitre plates and treated with the dual kinase inhibitors or vehicle (0.2% DMSO). After 24 h or 96 h of treatment the MTS tetrazolium reagent was added to the cells and incubated for 1 h. Absorbance at 490 nm was assayed with a Victor3 Wallac 1420 Multilabel counter (PerkinElmer, Waltham, MA, USA).

GammaA3 [5] = experiment: MTS cell viability assay; assay type: cell-based, mouse
Description: as §2, §3

BetaD5 [6] = experiment: MTS cell viability assay; assay type: cell-based, mouse
Description: as §2, §3

GammaD12 [7] = experiment: MTS cell viability assay; assay type: cell-based, mouse; conditions: MTS
Description: as §2, §3

A2C12 [8] = experiment: Cell cycle analysis by flow cytometry; assay type: cell-based, mouse; conditions: IC50 concentration, 96 h
Description: as §1

GammaA3 [9] = experiment: Cell cycle analysis by flow cytometry; assay type: cell-based, mouse; conditions: IC50 concentration, 96 h
Description: as §1

BetaD5 [10] = experiment: Cell cycle analysis by flow cytometry; assay type: cell-based, mouse; conditions: IC50 concentration, 96 h
Description: as §1

GammaD12 [11] = experiment: Cell cycle analysis by flow cytometry; assay type: cell-based, mouse; conditions: IC50 concentration, 96 h
Description: as §1

A549 [12] = experiment: MTS cell viability assay; assay type: cell-based, human
Description: as §2, §3

HepG2 [13] = experiment: MTS cell viability assay; assay type: cell-based, human
Description: as §2, §3

CaCo2 [14] = experiment: MTS cell viability assay; assay type: cell-based, human
Description: as §2, §3

c-Abl = target: T1, c-Abl (Homo sapiens, UniProt P00519); experiment: Abl filter-binding kinase assay (Abtide, [γ-32P]ATP); assay type: biochemical; conditions: isolated Abl; calculated from ID50, ATP-competitive; E0 0.005, S0 0.012 µM
T1 construct: His tag; purchased Upstate (Lake Placid, NY, USA)
Description: Baculovirus-produced recombinant purified his-tagged active against human Src and Abl were purchased from Upstate (Lake Placid, NY, USA).
Src activity was measured in a filter-binding assay using the Src Assay Kit (Upstate, Lake Placid, NY, USA), according to the manufacturer's protocol, using the specific Src peptide substrate [[…]] in the presence of 0.125 pmol of Src and 0.160 pmol of [γ-^32P]ATP. Abl activity was measured in a filter-binding assay using an Abl specific peptide substrate (Abtide, Upstate). Reaction conditions were (in a final volume of 10 µl): 25 mM Tris-HCl pH 7.5, 1 mM DTT, 0.012 µM [γ-^32P]ATP, 0.022 µM c-Abl. Reactions were incubated 10 min at 30°C.The samples (9 µl) were spotted on paper cellulose filters which were washed according to the manufacturer's protocol. Filter-bound radioactivity was measured by liquid scintillation with a Microbeta-Trilux apparatus (PerkinElmer, Waltham, MA, USA).
The ID50 were converted to Ki according to a competitive mechanism with respect to the substrate ATP. […] Since (i) the ATP concentration was limiting, i.e., [ATP], Km(ATP), and (ii) the enzyme concentration was not negligible with respect to the ATP concentration, the classical Cheng-Prusoff relationship was not applicable. Consequently, Ki values were calculated according to [drawing 3] (2) where S0 is the concentration of the competing substrate (ATP) and E0 is the concentration of the enzyme. Each experiment was done in triplicate and mean values were used for the interpolation. Curve fitting was performed with the program GraphPad Prism.

[15] = 24 h, read-out: Calculated IC50 after single treatment for 24 h
[16] = 96 h, read-out: Calculated IC50 after daily treatment for 96 h

T1 sequence (P00519 whole entry): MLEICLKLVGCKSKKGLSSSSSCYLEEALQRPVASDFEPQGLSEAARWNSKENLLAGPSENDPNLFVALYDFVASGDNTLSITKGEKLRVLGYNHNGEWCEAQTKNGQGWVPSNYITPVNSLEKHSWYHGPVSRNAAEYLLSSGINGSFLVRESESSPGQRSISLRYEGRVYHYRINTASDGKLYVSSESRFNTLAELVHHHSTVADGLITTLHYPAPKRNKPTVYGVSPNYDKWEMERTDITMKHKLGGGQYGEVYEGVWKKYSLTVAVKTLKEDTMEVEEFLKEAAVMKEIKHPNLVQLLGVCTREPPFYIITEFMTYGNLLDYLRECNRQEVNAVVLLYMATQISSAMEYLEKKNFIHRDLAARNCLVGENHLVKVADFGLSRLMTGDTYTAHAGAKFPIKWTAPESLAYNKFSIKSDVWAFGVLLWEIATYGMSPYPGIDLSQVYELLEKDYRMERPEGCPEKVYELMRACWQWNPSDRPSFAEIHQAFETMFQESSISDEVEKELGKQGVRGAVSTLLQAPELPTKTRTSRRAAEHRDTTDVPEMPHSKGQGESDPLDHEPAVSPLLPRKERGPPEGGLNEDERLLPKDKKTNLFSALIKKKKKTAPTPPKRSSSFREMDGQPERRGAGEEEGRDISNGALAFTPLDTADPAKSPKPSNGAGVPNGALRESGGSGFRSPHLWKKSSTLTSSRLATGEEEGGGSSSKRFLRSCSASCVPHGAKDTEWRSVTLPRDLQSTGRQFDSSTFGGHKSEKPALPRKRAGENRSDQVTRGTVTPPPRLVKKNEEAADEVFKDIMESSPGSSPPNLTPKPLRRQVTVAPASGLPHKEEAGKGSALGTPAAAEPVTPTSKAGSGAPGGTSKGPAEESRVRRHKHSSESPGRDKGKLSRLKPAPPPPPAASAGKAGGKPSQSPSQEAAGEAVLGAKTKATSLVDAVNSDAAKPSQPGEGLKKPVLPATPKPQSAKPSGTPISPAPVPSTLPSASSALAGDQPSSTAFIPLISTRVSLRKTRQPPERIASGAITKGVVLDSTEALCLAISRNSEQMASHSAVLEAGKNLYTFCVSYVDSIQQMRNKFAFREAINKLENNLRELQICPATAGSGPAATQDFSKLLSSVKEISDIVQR

IC50 (A549 [12]; [15]) [µM] | IC50 (A549 [12]; [16]) [µM] | IC50 (HepG2 [13]; [15]) [µM] | IC50 (CaCo2 [14]; [15]) [µM] | IC50 (CaCo2 [14]; [16]) [µM] | Compound | Cells in G1 phase (A549 [1]) [%] | Cells in G2 phase (A549 [1]) [%] | Cells in S phase (A549 [1]) [%] | Cells in G1 phase (HepG2 [2]) [%] | Cells in G2 phase (HepG2 [2]) [%] | Cells in S phase (HepG2 [2]) [%] | Cells in G1 phase (CaCo2 [3]) [%] | IC50 (A2C12 [4]; [15]) [µM] | IC50 (A2C12 [4]; [16]) [µM] | IC50 (GammaA3 [5]; [15]) [µM] | IC50 (GammaA3 [5]; [16]) [µM] | IC50 (BetaD5 [6]; [15]) [µM] | IC50 (BetaD5 [6]; [16]) [µM] | IC50 (GammaD12 [7]; [15]) [µM] | IC50 (GammaD12 [7]; [16]) [µM] | further results
25.1 ± 2.6 | 13.6 ± 1.5 | 56.2 ± 2.1 | 56.2 ± 2 | 6.5 ± 0.1 | CCCCNc1nc(SCC)nc2c1cnn2CC(Cl)c1ccccc1 (stereo not drawn) [Si20] | 78.9 | 4.3 | 16.7 | 61.5 | 7.3 | 31.2 | 61.9 | 28.1 ± 4.6 | 11.3 ± 0.9 | 21.5 ± 2.3 | 15.5 ± 2.3 | 27 ± 7.9 | 10.4 | 17.1 ± 1.5 | 11.3 ± 1.2 | Cells in G2 phase (CaCo2 [3]): 5.2%; Cells in S phase (CaCo2 [3]): 32.9%; Cells in G1 phase (A2C12 [8]): 55.6%; Cells in G2 phase (A2C12 [8]): 11.3%; Cells in S phase (A2C12 [8]): 33.1%; Cells in G1 phase (GammaA3 [9]): 51.9%; Cells in G2 phase (GammaA3 [9]): 17.5%; Cells in S phase (GammaA3 [9]): 30.8%; Cells in G1 phase (BetaD5 [10]): 63.2%; Cells in G2 phase (BetaD5 [10]): 24.2%; Cells in S phase (BetaD5 [10]): 12.6%; Cells in G1 phase (GammaD12 [11]): 31.4%; Cells in G2 phase (GammaD12 [11]): 9.7%; Cells in S phase (GammaD12 [11]): 58.9%; IC50 (HepG2 [13]; [16]): 8.1 ± 2.8 µM
69.5 ± 27.7 | 10.4 ± 0.4 | 58.5 ± 3 | 58.2 ± 4.2 | 5.9 ± 0.1 | CSc1nc(NCc2ccccc2)c2cnn(CC(Cl)c3ccccc3)c2n1 (stereo not drawn) [Si34] | 67.3 | 5.6 | 27.1 | 52 | 13.2 | 34.7 | 52.9 | 32.8 ± 4.8 | 8.3 ± 0.3 | 25.2 ± 3.1 | 10.7 ± 0.6 | 37 ± 2.3 | 9.6 ± 0.2 | 23.2 ± 2.5 | 8.8 ± 1.4 | Cells in G2 phase (CaCo2 [3]): 10.5%; Cells in S phase (CaCo2 [3]): 36.7%; Cells in G1 phase (A2C12 [8]): 74.5%; Cells in G2 phase (A2C12 [8]): 9.7%; Cells in S phase (A2C12 [8]): 15.7%; Cells in G1 phase (GammaA3 [9]): 68.6%; Cells in G2 phase (GammaA3 [9]): 16.8%; Cells in S phase (GammaA3 [9]): 14.6%; Cells in G1 phase (BetaD5 [10]): 65.8%; Cells in G2 phase (BetaD5 [10]): 23.1%; Cells in S phase (BetaD5 [10]): 11.1%; Cells in G1 phase (GammaD12 [11]): 36.2%; Cells in G2 phase (GammaD12 [11]): 7.9%; Cells in S phase (GammaD12 [11]): 55.9%; IC50 (HepG2 [13]; [16]): 26.7 ± 4.8 µM

Compound | IC50 (A549 [12]; [15]) [µM] | IC50 (A549 [12]; [16]) [µM] | IC50 (HepG2 [13]; [15]) [µM] | IC50 (CaCo2 [14]; [15]) [µM] | IC50 (CaCo2 [14]; [16]) [µM] | Cells in G1 phase (A549 [1]) [%] | Cells in G2 phase (A549 [1]) [%] | Cells in S phase (A549 [1]) [%] | Cells in G1 phase (HepG2 [2]) [%] | Cells in G2 phase (HepG2 [2]) [%] | Cells in S phase (HepG2 [2]) [%] | Cells in G1 phase (CaCo2 [3]) [%] | IC50 (A2C12 [4]; [15]) [µM] | IC50 (A2C12 [4]; [16]) [µM] | IC50 (GammaA3 [5]; [15]) [µM] | IC50 (GammaA3 [5]; [16]) [µM] | IC50 (BetaD5 [6]; [15]) [µM] | IC50 (BetaD5 [6]; [16]) [µM] | IC50 (GammaD12 [7]; [15]) [µM] | IC50 (GammaD12 [7]; [16]) [µM] | further results
BrC(Cn1ncc2c(N3CCOCC3)ncnc21)c1ccccc1 (stereo not drawn) [Si51] | > 100 | > 20 | > 100 | > 100 | > 20 | – | – | – | – | – | – | – | > 100 | > 20 | > 100 | > 20 | > 100 | > 20 | > 100 | > 20 | Ki (c-Abl): 220 nM

Source: publication PMC2994747, “Molecular Characterization of c-Abl/c-Src Kinase Inhibitors Targeted against Murine Tumour Progenitor Cells that Express Stem Cell Markers” (PLoS ONE, 2010)
